Test results: US12522597B2, “Methods and compositions for modulating splicing” (Skyhawk Therapeutics, Inc., priority 2019, dated 2026)
Like-named read-outs stand apart in the source and are kept apart here.

What was measured:
[1] = test system: Huntingtin (HTT) transcripts; assay: Quantitative splicing assay (HTT), qPCR; type: cell-based; conditions: Homo sapiens, GM04724 (CAG 70/20) Huntington's disease patient lymphoblasts, 24 h
Description: GM04724 (CAG 70/20) Huntington's disease patient lymphoblasts (Coriell) are plated in 96-wel v-bottom plates at 50,000 cells/well. Immediately after plating, cells are dosed with compound for 24 h at concentrations ranging from 2.5 uM to 0.15 nM (0.1% DMSO). Treated cells are lysed and cDNA synthesized using the Fast Advanced Cells-to-Ct kit (Thermofisher A35378) according to the manufacturer's instructions. 2 uL of each cDNA are used in qPCR reactions to confirm the compound-induced inclusion of a cryptic exon within intron 49 of the Huntingtin (HTT) transcripts. The qPCR reactions are prepared in 384-well plates in 10 uL volume, using TaqMan™ Fast Advanced Master Mix [ThermoFisher; 4444965] with primers and probes shown in the table below. Reactions are run in a Quant Studio 6 qPCR instrument with default settings.

mHTT protein = mHTT protein assay (2B7-MW1, Mesoscale Discovery); type: cell-based, human; conditions: GM04724 (CAG 70/20) Huntington's disease patient lymphoblast cells, 48 hours, 2B7-MW1 MSD; read-out: HTT Potency - Protein EC50 mHTT (average)
Summary of the method: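 mHTT levels were read with the 2B7-MW1 antibody pair (N17 and polyQ epitopes) on MSD after 48 h dosing, 10 μM–0.6 nM. Cells were GM04724 HD lymphoblasts (CAG 70/20). A replica plate was read by CTG for cell viability.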

[2] = test system: MDR1-MDCK cell monolayers; assay: MDCK-MDR1 permeability assay (BBB penetration potential); type: in vitro ADME; conditions: dog, MDCK-MDR1, 120 min, 5 μM, pH 7.4
Description: (§1) Each determination is performed in duplicate. […] Analytical conditions are outlined below.

MDR1 = assay: as above; type: in vitro ADME; conditions: dog; for efflux ratio at 120 min, 5 μM: MDCK-MDR1, pH 7.4, MDCK-MDR1: Efflux; for Papp A→B at 120 min, 5 μM: MDCK-MDR1, pH 7.4, MDCK-MDR1: Papp A-B; for Papp B→A at 120 min, 5 μM: MDCK-MDR1, pH 7.4, MDCK-MDR1: Papp B-A
Description: as §1

[3] = qPCR HTTex49_50, read-out: HTT Potency - Splicing: E49-50 EC50 (average)
[4] = qPCR cryptic exon 49b inclusion, read-out: HTT Potency - Splicing: E49b EC50 (average)

Structure (SMILES)	EC50 [1, 3]	EC50 [1, 4]	EC50 (mHTT protein)	MDCK-MDR1: % Recov A-B [2]	MDCK-MDR1: % Recov B-A [2]	efflux ratio at 120 min, 5 μM (MDR1)	Papp A→B at 120 min, 5 μM (MDR1)	Papp B→A at 120 min, 5 μM (MDR1)
Cn1ccc(-c2ccc(-c3ccc(O[C@@H]4C[C@H]5CCC[C@H](N5)[C@@H]4F)nn3)c(O)c2)n1 (single isomer, unassigned) [68-ENT1]	16 to 50 nM	16 to 50 nM	16 to 50 nM	87%	79%	6	8.61 ×10⁻⁶ cm/s	51.9 ×10⁻⁶ cm/s
Oc1cc(-c2cn[nH]c2)ccc1-c1ccc(O[C@@H]2C[C@H]3COC[C@H](N3)[C@@H]2F)nn1 (single isomer, unassigned) [123-ENT1]	101 to 500 nM	101 to 500 nM	101 to 500 nM	86%	90%	14	6.22 ×10⁻⁶ cm/s	87.8 ×10⁻⁶ cm/s
Cn1cc(-c2ccc(-c3ccc(O[C@@H]4C[C@@]5(C)CC[C@](C)(N5)[C@@H]4F)nn3)c(O)c2)cn1 (single isomer, unassigned) [150-ENT2]	16 to 50 nM	16 to 50 nM	16 to 50 nM	78%	87%	4	9.06 ×10⁻⁶ cm/s	38.6 ×10⁻⁶ cm/s
CNC(=O)c1ccc2cc(-c3ccc(O[C@@H]4C[C@H]5CCC[C@H](N5)[C@@H]4F)nn3)c(O)cc2n1 (single isomer, unassigned) [136-ENT2]	0.01 to 15 nM	16 to 50 nM	0.01 to 15 nM	88%	93%	25	2.1 ×10⁻⁶ cm/s	52.1 ×10⁻⁶ cm/s
Cn1ccc2cc(-c3ccc(O[C@@H]4C[C@H]5CCC[C@H](N5)[C@@H]4F)nn3)c(O)cc2c1=O (single isomer, unassigned) [125-ENT2]	101 to 500 nM	51 to 100 nM	16 to 50 nM	84%	87%	16	3.2 ×10⁻⁶ cm/s	52 ×10⁻⁶ cm/s
Cn1ccc2cc(-c3ccc(O[C@H]4C[C@]5(C)CC[C@@](C)(N5)[C@H]4F)nn3)c(O)cc2c1=O (single isomer, unassigned) [127-ENT1]	101 to 500 nM	101 to 500 nM	51 to 100 nM	78%	70%	7	6.39 ×10⁻⁶ cm/s	46.5 ×10⁻⁶ cm/s
Oc1cc(-c2cn[nH]c2)ccc1-c1ccc(O[C@H]2C[C@@H]3CCC[C@@H](N3)[C@@H]2F)nn1 (single isomer, unassigned) [41-ENT1]	0.01 to 15 nM	0.01 to 15 nM	0.01 to 15 nM	71%	86%	8	4.33 ×10⁻⁶ cm/s	34.7 ×10⁻⁶ cm/s
Cn1cc(-c2ccc(-c3ccc(O[C@H]4C[C@@H]5CCC[C@@H](N5)[C@H]4F)nn3)c(O)c2F)cn1 (single isomer, unassigned) [119-ENT2]	16 to 50 nM	16 to 50 nM	51 to 100 nM	59%	64%	3	9.17 ×10⁻⁶ cm/s	29.4 ×10⁻⁶ cm/s
Oc1cc(-c2cn[nH]c2)ccc1-c1ccc(O[C@H]2C[C@@H]3CC[C@@H](N3)[C@H]2F)nn1 (single isomer, unassigned) [42-ENT1]	0.01 to 15 nM	0.01 to 15 nM	0.01 to 15 nM	75%	84%	12	3.39 ×10⁻⁶ cm/s	42.4 ×10⁻⁶ cm/s
Oc1cc(-c2cnccn2)ccc1-c1ccc(O[C@H]2C[C@@H]3CCC[C@@H](N3)[C@H]2F)nn1 (single isomer, unassigned) [79-ENT2]	51 to 100 nM	51 to 100 nM	101 to 500 nM	74%	82%	3	9.52 ×10⁻⁶ cm/s	25.8 ×10⁻⁶ cm/s
Cn1ccc(-c2ccc(-c3ccc(O[C@@H]4C[C@@]5(C)CCC[C@](C)(N5)[C@@H]4F)nn3)c(O)c2)cc1=O (single isomer, unassigned) [149-ENT2]	16 to 50 nM	16 to 50 nM	16 to 50 nM	76%	73%	24	1.94 ×10⁻⁶ cm/s	45.7 ×10⁻⁶ cm/s
Cn1cc(-c2ccc(-c3ccc(O[C@@H]4C[C@H]5CCC[C@H](N5)[C@H]4F)nn3)c(O)c2)cn1 (single isomer, unassigned) [49-ENT1]	51 to 100 nM	51 to 100 nM	51 to 100 nM	49%	82%	2	5.36 ×10⁻⁶ cm/s	11.8 ×10⁻⁶ cm/s
Oc1cc(-c2cn[nH]c2)ccc1-c1ccc(O[C@@H]2C[C@H]3C[C@H](F)C[C@@H](C2)N3)nn1 [compound 113, 2-(6-(((1R,3r,5S,7s)-7-fluoro-9-azabicyclo[3.3.1]nonan-3-yl)oxy)pyridazin-3-yl)-5-(1H-pyrazol-4-yl)phenol]	0.01 to 15 nM	0.01 to 15 nM	0.01 to 15 nM	86%	88%	54	1.01 ×10⁻⁶ cm/s	54.2 ×10⁻⁶ cm/s
Cc1ccc(-c2ccc(-c3ccc(O[C@@H]4C[C@H]5CCC[C@H](N5)[C@@H]4F)nn3)c(O)c2)nn1 (single isomer, unassigned) [75-ENT1]	501 to 10000 nM	501 to 10000 nM	501 to 10000 nM	90%	92%	9	3.66 ×10⁻⁶ cm/s	32.5 ×10⁻⁶ cm/s
Cn1cc(-c2cc(O)c(-c3ccc(O[C@@H]4C[C@H]5CCC[C@H](N5)[C@@H]4F)nn3)cc2Cl)cn1 (single isomer, unassigned) [120-ENT1]	16 to 50 nM	16 to 50 nM	16 to 50 nM	29%	77%	8	3.51 ×10⁻⁶ cm/s	29.7 ×10⁻⁶ cm/s
Oc1cc(-c2cn[nH]c2)ccc1-c1ccc(O[C@@H]2C[C@H]3CCC[C@H](N3)[C@@H]2F)nn1 (single isomer, unassigned) [40-ENT2]	0.01 to 15 nM	0.01 to 15 nM	0.01 to 15 nM	80%	83%	17	2.47 ×10⁻⁶ cm/s	41.6 ×10⁻⁶ cm/s
